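How tested: cells in 96-well plates exposed to compound for 48 hours at five concentrations. TGI is the concentration that stops growth completely.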
How the values were obtained:
Test in all cases: NCI tumour cell line growth inhibition, 48 h
LOX IMVI melanoma = system: LOX IMVI melanoma
RXF 393 renal = system: RXF 393 renal
SF-295 CNS = system: SF-295 CNS
MDA-MB-435 = system: MDA-MB-435
NCI-H23 lung = system: NCI-H23 lung
MOLT-4 leukemia = system: MOLT-4 leukemia
SNB-19 CNS = system: SNB-19 CNS
A549 NSCLC = system: A549 NSCLC
SK-MEL-2 melanoma = system: SK-MEL-2 melanoma

| SMILES | TGI (LOX IMVI melanoma) [µM] | TGI (RXF 393 renal) [µM] | TGI (SF-295 CNS) [µM] | TGI (MDA-MB-435) [µM] | TGI (NCI-H23 lung) [µM] | TGI (MOLT-4 leukemia) [µM] | TGI (SNB-19 CNS) [µM] | TGI (A549 NSCLC) [µM] | TGI (SK-MEL-2 melanoma) [µM] |
| --- | --- | --- | --- | --- | --- | --- | --- | --- | --- |
| Cc1ccc(Nc2nc(=O)[nH]c(=O)[nH]2)cc1N=[N+]=[N-] | > 100 | > 100 | > 100 | > 100 | > 100 | > 100 | > 100 | > 100 | > 100 |
| CC12CC3(O)OC(O1)C1(COC(=O)c4ccccc4)C3CC21OC1OC(CO)C(O)C(O)C1O (centres undefined) | > 100 | > 100 | > 100 | > 100 | > 100 | > 100 | > 100 | > 100 | > 100 |
| Nc1nc(N)c2nnn(C[C@H]3CC[C@@H](CO)C3)c2n1 | > 100 | > 100 | > 100 | > 100 | > 100 | > 100 | > 100 | > 100 |  |
| S=C(c1c[nH]c2ccccc12)N1CCN(c2ccccc2)CC1 | > 100 | > 100 | > 100 | > 100 | > 100 | > 100 | > 100 |  | > 100 |
| CCOC(=O)C(C)(C)/C=C\C(Cl)=C(Cl)Cl | > 100 | > 100 | > 100 | > 100 | > 100 | > 100 | > 100 | > 100 |  |
| CC(=N/NC(=S)N1CCCCC1)/C(C)=N\NC(=S)N1CCCCC1 | > 100 | 3.2 | 3.74 | 3.79 | 4.82 | > 100 | 3.54 | 4.04 | 4.65 |
| CCOP(=O)(OCC)/C(C#N)=C/c1cccn1N(C)C | > 100 | > 100 | > 100 | > 100 | > 100 | > 100 | > 100 | > 100 | > 100 |
| COc1cc(C(=O)Nc2c3ccccc3nc3ccccc23)cc(OC)c1OC | > 100 | > 100 | > 100 | > 100 | > 100 | > 100 | > 100 | > 100 | > 100 |
| O=c1[nH]c(Nc2cccc(Br)c2)nc2nc[nH]c12 | > 100 | > 100 | > 100 | > 100 | > 100 | > 100 | > 100 | > 100 | > 100 |
| Cc1ccc2cccc3c2c1CC1(C3=O)S(=O)(=O)OCCOS1(=O)=O | > 100 | > 100 | > 100 | > 100 | > 100 | > 100 | > 100 | > 100 | > 100 |
| CSc1nc(O)c(/C=C2\C=Nc3ccccc32)[nH]1 | > 100 | > 100 |  | > 100 | > 100 | > 100 | > 100 | > 100 | > 100 |
| O=C(/C=C/c1cccs1)c1cccc(C(=O)/C=C/c2cccs2)n1 | 7.34 | > 86.9 | > 100 | > 100 | > 90.6 | 6.54 | > 85 | > 100 | > 100 |
| CCCC#CC(O)(C(=O)OC1CCN(C)CC1)C1CCCCC1 (centres undefined) | > 100 | > 100 | > 100 | > 100 | > 100 | > 100 | > 100 | > 100 | > 100 |
| O=C1OC(C2OC(=O)c3cc(O)c(O)c(O)c3-c3c(O)c(O)c4oc(=O)c5c(c(O)c(O)c6oc(=O)c3c4c65)-c3c(cc(O)c(O)c3O)C(=O)OCC2O)C2OC(=O)c3c(c(O)c(O)c(O)c3[C@H]2O)-c2c1cc(O)c(O)c2O (some centres undefined) | 35.5 | 73.5 | 68.5 | 42.3 | 41.2 | 65.3 | > 100 | > 100 | > 100 |
| COc1ccc(C(C#N)NCCCCCCNC(C#N)c2ccc(OC)cc2)cc1 (centres undefined) | > 100 | > 100 | > 100 | > 100 | > 100 | > 100 | > 100 | > 100 | > 100 |
| CN(C)CCNC(=O)c1ccc(NCCCN(C)CCCNc2ccc(C(=O)NCCN(C)C)c3[nH]c4ccc([N+](=O)[O-])cc4c(=O)c23)c2c(=O)c3cc([N+](=O)[O-])ccc3[nH]c12 | 0.206 | 0.351 |  | 0.328 | 0.537 | 0.0623 | 0.649 | 0.64 | 0.382 |
| CC1=C(C(=O)NCC(C)O)CC(C(=O)NCC(C)O)=C(C)N1 (centres undefined) | > 100 | > 100 | > 100 | > 100 | > 100 | > 100 | > 100 | > 100 | > 100 |
| Cc1ccc([N+](=O)[O-])cc1S(=O)(=O)Nc1ccc(C2=NNC(c3cccs3)C2)cc1 (centres undefined) | > 100 | 38.7 | 63.9 | > 100 | > 100 | 92.9 | > 100 | > 100 | > 100 |
| O[C@H]1[C@H](O)[C@H](O)CN2CCC[C@@H](O)[C@H]12 | > 100 | > 100 | > 100 | > 100 | > 100 | > 100 | > 100 | > 100 | > 100 |
| CC1(C)C[C@H](O)[C@H](O)[C@]23C(=O)O[C@H](O)[C@H]2C(C=O)=CC[C@@H]13 | > 100 | > 100 | > 100 | > 100 | > 100 | > 100 | > 100 | > 100 |  |
| NCCCc1c(-c2ccccc2)nc(N)[nH]c1=O | > 100 | > 100 | > 100 | > 100 | > 100 | > 100 | > 100 | > 100 | > 100 |
| CC(=O)O[C@H]1CC[C@@]2(C)C(=CC[C@@H]3[C@@H]2CC[C@]2(C)c4c(cc(C#N)c(=N)n4C(C)=O)C[C@@H]32)C1 | 30.8 | 66.5 | 29.6 | 38.5 | 32.1 | 35.8 | 89 | 64.8 |  |
| CCn1c(-c2ccc(C)cc2)cs/c1=N\C(P(=O)(O)O)P(=O)(O)O | > 100 | > 100 | > 100 | > 100 | > 100 | > 100 | > 100 | > 100 |  |
